Key:
Assay in all cases: Aminoacylation Assay
Conditions in all cases: pH 8
[1] = target: Phenylalanine--tRNA ligase alpha/beta subunit (Escherichia coli (strain K12), UniProt P07395+P08312)
Description: (§1) Compounds were solubilized in DMSO. Serial 2-fold dilutions covering two concentration ranges, 10 mM to 19.5 μM and 100 μM to 195 nM, were prepared. 0.6 μl/well of the diluted compound solutions (50× the final assay concentration) were added to white 384-well polystyrene assay plates (Thermo Fisher Scientific/Matrix Technology Corp., Hudson, NH). Uninhibited control wells (MAX)received 2 μl of 30% (v/v) DMSO. Baseline wells (MIN) received 2 μl of a solution containing 30% (v/v)DMSO and 15 mM L-phenylalanine (Sigma-Aldrich). Assays were performed in a buffer consisting of 50 mM Tris-HCl (pH 8.0), 50 mM NH4Cl, 10 mM MgCl2, 2 mM DTT, 0.005% Tween 20 (Surfact-Amps-20, Thermo Fisher Scientific/Pierce Protein Research products, Suwanee, GA), and 0.1 mM EDTA-NaOH (pH 8.0). Compounds were preincubated with 15 μl/well of either 2 nM E. coli PheRS, 2 nM H. influenzae PheRS, or 0.8 nM P. aeruginosa PheRS in buffer for 30 min at 2× final assay concentrations. The reactions were initiated with 15 μl/well of a 2× substrate solution in buffer containing 2 μM E. coli phenylalanine tRNA (Sigma-Aldrich), 100 μM ATP, and 2 μM [3H]Phe with a specific radioactivity of 6.3 Ci/mmol (PerkinElmer Life Sciences). The reactions were quenched after 30 min with 15 μl/well of a solution containing 4 mg/ml PVT/PEI/WGA type A SPA beads (PerkinElmer Life Sciences), 262 mM sodium citrate (pH 2.0), and 150 mM NaCl. The plates were sealed with transparent film (PerkinElmer Life Sciences). The beads were allowed to settle for a minimum of 2 h before scintillation counting with a Top-Count plate reader (PerkinElmer Life Sciences). [3H] counts (CPM) for aminoacylated tRNA were measured for 1 min/well.

[2] = target: Phenylalanine--tRNA ligase alpha/beta subunit (Pseudomonas aeruginosa (strain ATCC 15692 / PAO1 / 1C / PRS 101 / LMG12228), UniProt A0A8B5A132+Q9I0A4)
Description: as §1

[3] = target: Phenylalanine--tRNA ligase alpha/beta subunit (Pseudomonas aeruginosa, UniProt Q9I0A3+Q9I0A4)
Description: as §1

Chain of Phenylalanine--tRNA ligase alpha/beta subunit (Escherichia coli (strain K12), UniProt P07395+P08312) (P08312 whole entry): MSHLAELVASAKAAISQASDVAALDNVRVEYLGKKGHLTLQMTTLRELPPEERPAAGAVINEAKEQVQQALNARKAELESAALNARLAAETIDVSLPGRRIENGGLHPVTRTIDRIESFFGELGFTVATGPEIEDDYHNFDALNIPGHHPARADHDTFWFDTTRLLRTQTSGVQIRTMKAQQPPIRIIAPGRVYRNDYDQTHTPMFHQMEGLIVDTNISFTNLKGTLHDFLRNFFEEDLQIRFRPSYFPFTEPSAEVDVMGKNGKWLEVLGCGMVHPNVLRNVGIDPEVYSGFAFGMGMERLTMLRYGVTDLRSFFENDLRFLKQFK
Chain of Phenylalanine--tRNA ligase alpha/beta subunit (Escherichia coli (strain K12), UniProt P07395+P08312) (P07395 whole entry): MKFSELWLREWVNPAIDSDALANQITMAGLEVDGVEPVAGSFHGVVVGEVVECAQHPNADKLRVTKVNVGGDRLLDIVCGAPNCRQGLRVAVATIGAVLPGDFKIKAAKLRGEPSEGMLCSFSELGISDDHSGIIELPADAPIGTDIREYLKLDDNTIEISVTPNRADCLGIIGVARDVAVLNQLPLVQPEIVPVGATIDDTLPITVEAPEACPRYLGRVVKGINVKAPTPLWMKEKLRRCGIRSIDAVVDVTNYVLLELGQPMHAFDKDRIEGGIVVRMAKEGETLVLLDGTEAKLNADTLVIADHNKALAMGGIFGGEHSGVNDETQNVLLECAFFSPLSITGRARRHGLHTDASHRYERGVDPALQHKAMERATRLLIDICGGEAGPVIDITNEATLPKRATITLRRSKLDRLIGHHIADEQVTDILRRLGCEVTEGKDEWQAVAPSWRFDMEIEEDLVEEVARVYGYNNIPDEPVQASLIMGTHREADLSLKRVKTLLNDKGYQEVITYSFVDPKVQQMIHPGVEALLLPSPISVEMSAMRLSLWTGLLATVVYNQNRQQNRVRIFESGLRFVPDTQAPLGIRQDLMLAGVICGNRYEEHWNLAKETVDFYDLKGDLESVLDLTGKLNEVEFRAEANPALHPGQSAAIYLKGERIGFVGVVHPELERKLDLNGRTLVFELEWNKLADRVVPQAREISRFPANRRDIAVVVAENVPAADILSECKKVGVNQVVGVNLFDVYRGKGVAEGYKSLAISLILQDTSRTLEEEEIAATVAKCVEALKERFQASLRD
Chain of Phenylalanine--tRNA ligase alpha/beta subunit (Pseudomonas aeruginosa (strain ATCC 15692 / PAO1 / 1C / PRS 101 / LMG12228), UniProt A0A8B5A132+Q9I0A4) (A0A8B5A132 whole entry): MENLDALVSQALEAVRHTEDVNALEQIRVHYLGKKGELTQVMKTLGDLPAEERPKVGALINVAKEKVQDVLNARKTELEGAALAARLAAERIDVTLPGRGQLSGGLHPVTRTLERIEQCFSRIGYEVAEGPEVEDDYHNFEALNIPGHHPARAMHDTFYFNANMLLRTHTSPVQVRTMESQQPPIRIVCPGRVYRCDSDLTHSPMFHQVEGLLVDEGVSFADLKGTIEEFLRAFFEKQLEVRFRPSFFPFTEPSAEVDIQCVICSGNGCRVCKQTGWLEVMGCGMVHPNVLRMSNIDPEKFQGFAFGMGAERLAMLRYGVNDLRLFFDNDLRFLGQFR
Chain of Phenylalanine--tRNA ligase alpha/beta subunit (Pseudomonas aeruginosa (strain ATCC 15692 / PAO1 / 1C / PRS 101 / LMG12228), UniProt A0A8B5A132+Q9I0A4) (Q9I0A4 whole entry): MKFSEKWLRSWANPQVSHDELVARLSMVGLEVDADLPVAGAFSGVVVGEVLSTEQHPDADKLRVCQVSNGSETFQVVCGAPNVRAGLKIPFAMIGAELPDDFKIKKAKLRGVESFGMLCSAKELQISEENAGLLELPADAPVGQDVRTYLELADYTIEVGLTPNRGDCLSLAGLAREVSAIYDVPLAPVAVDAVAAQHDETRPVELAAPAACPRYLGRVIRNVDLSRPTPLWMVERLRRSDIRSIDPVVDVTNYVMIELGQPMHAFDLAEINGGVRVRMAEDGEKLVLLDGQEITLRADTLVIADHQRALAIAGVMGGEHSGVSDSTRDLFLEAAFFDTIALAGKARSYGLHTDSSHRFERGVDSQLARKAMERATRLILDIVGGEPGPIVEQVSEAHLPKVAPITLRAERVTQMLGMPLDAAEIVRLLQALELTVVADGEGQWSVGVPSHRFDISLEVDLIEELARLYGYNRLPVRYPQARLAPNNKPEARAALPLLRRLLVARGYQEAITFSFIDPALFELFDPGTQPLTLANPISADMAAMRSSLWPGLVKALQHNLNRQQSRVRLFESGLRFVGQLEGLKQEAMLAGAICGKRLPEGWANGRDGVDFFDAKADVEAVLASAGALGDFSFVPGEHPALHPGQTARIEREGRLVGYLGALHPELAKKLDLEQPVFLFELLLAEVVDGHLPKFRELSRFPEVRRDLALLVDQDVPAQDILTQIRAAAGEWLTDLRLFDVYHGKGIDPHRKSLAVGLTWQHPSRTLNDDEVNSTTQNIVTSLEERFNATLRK
Chain of Phenylalanine--tRNA ligase alpha/beta subunit (Pseudomonas aeruginosa, UniProt Q9I0A3+Q9I0A4) (Q9I0A3 whole entry): as the sequence (A0A8B5A132 whole entry) above
Chain of Phenylalanine--tRNA ligase alpha/beta subunit (Pseudomonas aeruginosa, UniProt Q9I0A3+Q9I0A4) (Q9I0A4 whole entry): as the sequence (Q9I0A4 whole entry) above

SMILES | IC50 [1] [nM] | IC50 [2] [nM] | IC50 [3] [nM]
O=C(Nc1cccc(S(=O)(=O)N2CCN(c3ccccn3)CC2)c1)Nc1nccs1 [1-(3-(4-(Pyridin-2-yl)piperazin-1-ylsulfonyl)phenyl)-3-(thiazol-2-yl)urea (1a)] | 2.7 | 22 | 
CNC(=O)COc1cccc(Nc2cc(Cl)ccn2)c1 [2-(3-(4-Chloropyridin-2-ylamino)phenoxy)-N-methylacetamide (2a)] | 1400 | 82000 | 
CNC(=O)COc1cccc(Nc2cc(C#N)ccn2)c1 [2-(3-(4-Cyanopyridin-2-ylamino)phenoxy)-N-methylacetamide (2b)] | 560 | 41000 | 
COc1cccc(-c2ncc(C(F)(F)F)[nH]2)c1 [2-(3-methoxyphenyl)-5-(trifluoromethyl)-1H-imidazole (3d)] | 16000 |  | > 200000
NS(=O)(=O)CCNC(=O)c1csc(COc2ccc(Cl)cc2)n1 [2-((4-Chlorophenoxy)methyl)-N-(2-sulfamoylethyl)thiazole-4-carboxamide (4c)] | 190 | 26000 | 
N#CCNC(=O)c1csc(COc2ccc(Cl)cc2)n1 [2-((4-Chlorophenoxy)methyl)-N-(cyanomethyl)thiazole-4-carboxamide (4b)] | 100 | 13000 | 
O=C(COc1cccc(Nc2cc(Cl)ccn2)c1)NC1CCS(=O)(=O)C1 (stereo unspecified) [2-[3-[(4-Chloro-2-pyridyl)amino]phenoxy]-N-(1,1-dioxothiolan-3-yl)acetamide (2c)] | 100 | 34000 | 
COc1cccc(-c2cc(C(F)(F)F)n[nH]2)c1 [5-(3-Methoxyphenyl)-3-(trifluoromethyl)-1H-pyrazole (3a)] | 60 |  | 10000
CCOC(=O)COc1cccc(-c2cc(C(F)F)n[nH]2)c1 [Ethyl 2-(3-(3-(difluoromethyl)-1H-pyrazol-5-yl)phenoxy)acetate (3c)] | 1000 |  | 59000
CCOC(=O)COc1cccc(-c2cc(C(F)(F)F)[nH]n2)c1 [Ethyl 2-(3-(5-(trifluoromethyl)-1H-pyrazol-3-yl)phenoxy)acetate (3b)] | 80 |  | 11000
Cc1ccc(OCc2nc(C(=O)NC3CCS(=O)(=O)C3)cs2)cc1 (stereo unspecified) [N-(1,1-dioxothiolan-3-yl)-2-[(4-methylphenoxy)methyl]thiazole-4-carboxamide (4a)] | 1400 | 80000 | 
CS(=O)(=O)C1(CCNC(=O)COc2cccc(-c3cc(C(F)(F)F)[nH]n3)c2)CC1 [N-(2-(1-(methylsulfonyl)cyclopropyl)ethyl)-2-(3-(5-(trifluoromethyl)-1H-pyrazol-3-yl)phenoxy)acetamide (3e)] | 70 |  | 4200
O=C(Nc1cccc(S(=O)(=O)NCCc2c[nH]c3ccccc23)c1)Nc1nccs1 [N-(2-(1H-indol-3-yl)ethyl)-3-(3-thiazol-2-ylureido)benzenesulfonamide (1b)] | 2.2 |  | 13

— BindingDB's records for doi:10.1074/jbc.M114.574061 (AstraZeneca R&D Boston, 2014)
